In patent US8609173B2, “Compositions comprising sweetness enhancers and methods of making them” (Senomyx Inc., priority 2008, dated 2013):

Legend:
External panelists = test: Line scale (15-point sucrose equivalence) sensory test, Example 5, sucrose or LSB, pH 7.1; format: in vivo, Human
Protocol: (§1) Several types of sensory tests were used to determine the efficacy of 3-(4-amino-2,2-dioxide-1H-benzo[c][1,2,6]thiadiazin-5-yloxy)-2′,2′-dimethyl-N-propylpropanamide 3-(4-amino-2,2-dioxide-1H-benzo[c][1,2,6]thiadiazin-5-yloxy)-2′,2′-dimethyl-N-propylpropanamide in enhancing the sweetness of sucrose. Two types of tests were conducted: • 1) Sensory scaling tests were performed using a 15-point percent sucrose equivalence scale for sweetness in order to evaluate sweetness enhancement 3-(4-amino-2,2-dioxide-1H-benzo[c][1,2,6]thiadiazin-5-yloxy)-2′,2′-dimethyl-N-propylpropanamide 3-(4-amino-2,2-dioxide-1H-benzo[c][1,2,6]thiadiazin-5-yloxy)-2′,2′-dimethyl-N-propylpropanamide in sucrose or in fructose. • 2) Paired comparison tests (2-alternative forced choice difference tests) were used to determine sweetness equivalence for solutions of sucrose vs. 3-(4-amino-2,2-dioxide-1H-benzo[c][1,2,6]thiadiazin-5-yloxy)-2′,2′-dimethyl-N-propylpropanamide 3-(4-amino-2,2-dioxide-1H-benzo[c][1,2,6]thiadiazin-5-yloxy)-2′,2′-dimethyl-N-propylpropanamide or buffer vs. 3-(4-amino-2,2-dioxide-1H-benzo[c][1,2,6]thiadiazin-5-yloxy)-2′,2′-dimethyl-N-propylpropanamide 3-(4-amino-2,2-dioxide-1H-benzo[c][1,2,6]thiadiazin-5-yloxy)-2′,2′-dimethyl-N-propylpropanamide. Stimuli:
Tests were performed with sucrose or fructose. The sweetener was evaluated with and/or without 3-(4-amino-2,2-dioxide-1H-benzo[c][1,2,6]thiadiazin-5-yloxy)-2′,2′-dimethyl-N-propylpropanamide 3-(4-amino-2,2-dioxide-1H-benzo[c][1,2,6]thiadiazin-5-yloxy)-2′,2′-dimethyl-N-propylpropanamide at the appropriate concentration(s).
3-(4-amino-2,2-dioxide-1H-benzo[c][1,2,6]thiadiazin-5-yloxy)-2′,2′-dimethyl-N-propylpropanamide was prepared as a concentrated stock solution in ethanol to ensure dissolution of the 3-(4-amino-2,2-dioxide-1H-benzo[c][1,2,6]thiadiazin-5-yloxy)-2′,2′-dimethyl-N-propylpropanamide. Therefore, all taste solutions contained ethanol in the final solution. Samples without 3-(4-amino-2,2-dioxide-1H-benzo[c][1,2,6]thiadiazin-5-yloxy)-2′,2′-dimethyl-N-propylpropanamide also contained an equivalent concentration of ethanol. For samples involving 3-(4-amino-2,2-dioxide-1H-benzo[c][1,2,6]thiadiazin-5-yloxy)-2′,2′-dimethyl-N-propylpropanamide at 5-10 ppm (up to 28 μM), the final concentration of ethanol was 0.2%; 30-40 μM, 0.4% ethanol; 50 μM, 0.5% ethanol; and 100 μM, 1% ethanol.
Taste samples were also prepared in low sodium phosphate buffer (pH 7.1; “LSB”) lacking sucrose to evaluate the taste of 3-(4-amino-2,2-dioxide-1H-benzo[c][1,2,6]thiadiazin-5-yloxy)-2′,2′-dimethyl-N-propylpropanamide alone. Low sodium phosphate buffer consists of 0.3 mM KCl, 0.5 mM Na2HPO4, and 0.175 mM KH2PO4.
In scaling test situations, the samples were rated on a 15-point scale for sweetness, ranging from 0=0% sucrose to 15=15% sucrose. To evaluate attributes other than sweetness, references are used for training and are prepared according to the table below. Note that each reference was given a score of 5 on the 15-point scale.
External panelists were used for the tests. The exact number of panelists is reported with test results. Subjects were instructed not to eat or drink anything (except water) for at least 1 hour prior to the test.
Panelists rinsed their mouths with water prior to starting any test. Samples were presented to panelists in a randomized, counterbalanced order. Panelists rinsed with water and had up to a 1 minute delay to clear the mouth of any tastes after each evaluation. Two replicates of each test were performed, unless otherwise noted.
In scaling tests, panelists rate samples monadically for the attributes listed above (see Stimuli). In paired comparison tests, panelists taste pairs of solutions and indicate which sample is perceived to be sweeter.
Attributes of interest are reported for each scaling taste test.
Panelists rinsed their mouths with water prior to starting any test. Samples were presented to panelists in a randomized, counterbalanced order. […]

Panelists = test: Paired comparison taste test, Example 7, sucrose or fructose solutions; format: in vivo, Human
Protocol: as §1
Panelists evaluated two solutions in a paired comparison taste test procedure. They were instructed to select the sweeter of the two samples. They were also asked to comment on how difficult it was to tell the difference in sweetness between both samples and if any off tastes were perceived.
Panelists evaluated two solutions in a paired comparison taste test procedure and were instructed to select the sweeter of the two samples.

CCCNC(=O)C(C)(C)COc1cccc2c1C(N)=NS(=O)(=O)N2 [3-(4-amino-2,2-dioxide-1H-benzo[c][1,2,6]thiadiazin-5-yloxy)-2′,2′-dimethyl-N-propylpropanamide]
off tastes (External panelists; 25.0 μM (8.9 ppm) compound on its own): no significant off tastes
Average Sweetness (External panelists; 25 μM (8.9 ppm) compound on its own, pH 7, n = 30): 0.6
Sweetness vs sucrose solutions (conclusion) (External panelists; 25.0 μM (8.9 ppm) compound on its own, p>0.10): not significantly different in sweetness than 0% sucrose
Average Bitterness (External panelists; 25 μM compound on its own, n = 30): 0.2
Average Sweetness (External panelists; 50 μM (17.7 ppm) compound on its own in LSB, pH 7.1, n = 14): 1.3
bitter off tastes (External panelists; 50 μM compound in LSB, pH 7.1): no significant bitter off tastes
off tastes (External panelists; 50 μM compound on its own in LSB): no significant off tastes
Average Bitterness (External panelists; 1% Sucrose + 5 ppm (14.11 μM) compound, n = 30): 0.4
Average Sweetness (External panelists; 1% Sucrose + 5 ppm (14.11 μM) compound, pH 7.1, n = 30): 2.5
Sweetness vs sucrose solutions (conclusion) (External panelists; 1% sucrose + 5 ppm compound, p>0.10): not significantly different in sweetness than 2% sucrose
off tastes (External panelists; 1-10 ppm compound in 6% sucrose, LSB, pH 7.1): no significant off tastes
Average Sweetness (External panelists; 2% Sucrose + 25 μM (8.9 ppm) compound, pH 7.1, n = 28): 5.6
Average Bitterness (External panelists; 2% Sucrose + 25 μM compound, n = 28): 0.3
Average Bitterness (External panelists; 2% Sucrose + 5 ppm (14.11 μM) compound, n = 30): 0.2
Average Sweetness (External panelists; 2% Sucrose + 5 ppm (14.11 μM) compound, pH 7.1, n = 30): 4.6
Sweetness vs sucrose solutions (conclusion) (External panelists; 2% sucrose + 5 ppm compound): not significantly different in sweetness than 4% sucrose
Sweetness vs sucrose solutions (conclusion) (External panelists; 2% sucrose + 8.9 ppm compound, p>0.10): not significantly different in sweetness than 6% sucrose
Average Sweetness (External panelists; 4% Sucrose + 25 μM (8.9 ppm) compound, pH 7.1, n = 28): 8.3
Average Bitterness (External panelists; 4% Sucrose + 25 μM compound, n = 28): 0.3
Average Bitterness (External panelists; 4% Sucrose + 5 ppm (14.11 μM) compound, n = 30): 0.2
Average Sweetness (External panelists; 4% Sucrose + 5 ppm (14.11 μM) compound, pH 7.1, n = 30): 8.1
Sweetness vs sucrose solutions (conclusion) (External panelists; 4% sucrose + 5 ppm compound, p>0.10): not significantly different in sweetness than 8% sucrose
Sweetness vs sucrose solutions (conclusion) (External panelists; 4% sucrose + 8.9 ppm compound, p>0.10): not significantly different in sweetness than 8% sucrose
off tastes (External panelists; 5 ppm compound in 1-6% sucrose, LSB, pH 7.1): no significant off tastes
Average Sweetness (External panelists; 6% Sucrose + 25 μM (8.9 ppm) compound, pH 7.1, n = 24): 10.6
Sweetness vs sucrose solutions (conclusion) (External panelists; 6% Sucrose + 25 μM compound, p>0.10): not significantly different in sweetness than 10% or 12% sucrose
Average Bitterness (External panelists; 6% Sucrose + 25 μM compound, pH 7.1, n = 24): 0.1
Average Sweetness (External panelists; 6% Sucrose + 50 μM (17.7 ppm) compound, pH 7.1, n = 15): 9.9
Sweetness vs sucrose solutions (conclusion) (External panelists; 6% Sucrose + 50 μM compound, p>0.10): not significantly different in sweetness compared to 10% or 12% Sucrose
Average Bitterness (External panelists; 6% Sucrose + 50 μM compound, pH 7.1, n = 15): 0.2
Average Bitterness (External panelists; 6% Sucrose + 1 ppm (2.82 μM) compound, n = 30): 0.7
Average Sweetness (External panelists; 6% Sucrose + 1 ppm (2.82 μM) compound, pH 7.1, n = 30): 7.5
Average Bitterness (External panelists; 6% Sucrose + 2 ppm (5.64 μM) compound, n = 30): 0.4
Average Sweetness (External panelists; 6% Sucrose + 2 ppm (5.64 μM) compound, pH 7.1, n = 30): 8.0
Average Bitterness (External panelists; 6% Sucrose + 4 ppm (11.29 μM) compound, n = 30): 0.4
Average Sweetness (External panelists; 6% Sucrose + 4 ppm (11.29 μM) compound, pH 7.1, n = 30): 10.1
Average Bitterness (External panelists; 6% Sucrose + 5 ppm (14.11 μM) compound, n = 30): 0.4
Average Sweetness (External panelists; 6% Sucrose + 5 ppm (14.11 μM) compound, pH 7.1, n = 30): 10.2
Average Bitterness (External panelists; 6% Sucrose + 7 ppm (19.75 μM) compound, n = 30): 0.3
Average Sweetness (External panelists; 6% Sucrose + 7 ppm (19.75 μM) compound, pH 7.1, n = 30): 10.3
Sweetness vs sucrose solutions (conclusion) (External panelists; 6% Sucrose + 7 ppm compound, p>0.10): not significantly different than 10% or 12% sucrose
Average Bitterness (External panelists; 6% Sucrose + 10 ppm (28.22 μM) compound, n = 30): 0.6
Average Sweetness (External panelists; 6% Sucrose + 10 ppm (28.22 μM) compound, pH 7.1, n = 30): 10.9
Sweetness vs sucrose solutions (conclusion) (External panelists; 6% Sucrose + 10 ppm compound, p>0.10): not significantly different than 10% or 12% sucrose
off tastes (External panelists; 6% sucrose + 25 μM compound): no significant off tastes
Sweetness vs sucrose solutions (conclusion) (External panelists; 6% sucrose + 4 ppm compound, p>0.10): not significantly different than 10% sucrose
off tastes (External panelists; 8.9 ppm compound in 2-4% sucrose, LSB, pH 7.1): no significant off tastes
Sample selected as more sweet by panelists, Total (Panelists; 28 μM (9.9 ppm) compound chosen, vs 1% Sucrose, n = 32): 4
Sweetness comparison (conclusion) (Panelists; 28 μM compound vs 1% sucrose): 1% sucrose was significantly sweeter
Sample selected as sweeter by panelists, Test 1 (Panelists; 6% Fructose + 25 μM (8.9 ppm) compound chosen, vs 6% Fructose, N = 25): 20
Sample selected as more sweet by panelists, Test 1 (Panelists; 6% Fructose + 25 μM (8.9 ppm) compound chosen, vs 7% Fructose, N = 25): 12
Sweetness comparison (conclusion) (Panelists; 6% fructose + 25 μM compound vs 6% fructose, p<0.05): significantly sweeter than 6% fructose
Sweetness comparison (conclusion) (Panelists; 6% fructose + 25 μM compound vs 7% fructose): no significant difference in sweetness
